From patent US6451341B1, “Time release formulation of vitamins, minerals and other beneficial supplements” (priority 1990, dated 2002)

Key:
skin tumors = assay: Effects of antioxidants on skin tumor promotion (DMBA initiation + TPA promotion), antioxidants applied with TPA; type: in vivo, mice (SENCAR); conditions: 30 weeks
Text: In one important aspect of the present invention, the formulation includes at least one antioxidant. The antioxidant is preferably selected from the group consisting of butylated hydroxyanisole, butylated hydroxytoluene and propyl gallate. The inventive formulation may include one, or, more preferably, several of the preferred antioxidants in combination. According to one embodiment, the inventive formulation includes butylated hydroxyanisole (BHA) or butylated hydroxytoluene (BHT), and propyl gallate. BHA, BHT and propyl gallate are all antioxidants used to stabilize cosmetic, pharmaceutical, and food products. It has been reported that these agents protect normal cells against radiation, free radicals, toxic chemicals and chemical carcinogens. […] The SENCAR mouse is a valid testing system for the ability of a compound to inhibit tumor initiation and promotion. A good dose-response relationship exists for 7, 12-dimethylbenzanthracene to initiate skin tumors in these mice and they are sensitive to TPA (12-0-tetradecanoylphorbol-13-acetate) promotion [Slaga(1983) “Multistage Skin Carcinogenesis and Specificity of Inhibitors” in: Modulation and Mediation of Cancer by Vitamins, pp. 10-23.]. Further, the preferred antioxidants of the present invention have been reported to protect against cardiovascular disorders, enhance immune function and increase longevity. The preferred antioxidants of the present invention work synergistically with several vitamins, minerals, amino acids, enzymes, and other antioxidants or free radial scavengers included in the formulation of the present invention as will be described in detail below.

skin cancer = assay: Mouse skin carcinogenesis system; type: in vivo; conditions: given alone
spontaneous tumors = assay: Effects of antioxidants in the diet on aging and spontaneous tumor formation in mice; type: in vivo; conditions: 0.5% in normal laboratory chow; 100 SENCAR mice per group
Text: Table 2 illustrates the effects of certain antioxidant components of the present formulation on all the known spontaneous tumor formations and longevity in mice.

[1] = 0.5 mg applied simultaneously with TPA 2x/wk, 30 female SENCAR mice

Row | Molecule | Tumor Response (% Inhibition) (skin tumors; [1]) | Increase in Lifespan (%) (spontaneous tumors) | Spontaneous Tumor Formation (% of Control) (spontaneous tumors) | also measured
1 | CC1=C(/C=C/C(C)=C/C=C/C(C)=C/C=C/C=C(C)/C=C/C=C(C)/C=C/C2=C(C)CCCC2(C)C)C(C)(C)CCC1 [B-carotene, Beta carotene] | 20 | – | – | inhibitory activity in mouse skin carcinogenesis (skin cancer): lack of an inhibitory activity
2 | COc1ccc(O)c(C(C)(C)C)c1 [BHA, butylated hydroxyanisole] | 35 | 132 | 46 % of Control | –
3 | Cc1cc(C(C)(C)C)c(O)c(C(C)(C)C)c1 [BHT, butylated hydroxytoluene] | 32 | 124 | 56 % of Control | –
4 | CCCOC(=O)c1cc(O)c(O)c(O)c1 [Propyl gallate, propyl gallate] | 40 | 127 | 62 % of Control | –
5 | [Se] [Selenium] | – | – | – | Tumor Response (% Inhibition) (skin tumors; 0.004 mg applied simultaneously with TPA 2x/wk): 23 % Inhibition
6 | O=C1O[C@H]([C@@H](O)CO)C(O)=C1O [Vitamin C] | 30 | – | – | –
7 | Vitamin E | – | – | – | Tumor Response (% Inhibition) (skin tumors; 0.1 mg applied simultaneously with TPA 2x/wk): 25 % Inhibition
